Data on 21 compounds can be found in PubChem BioAssay AID328 (DTP/NCI, 2004).

This assay relates to BDF1 mice, P388 leukemia ip, median survival T/C. Description: NCI In Vivo Anticancer Drug Screen. Data for tumor model P388 Leukemia (intraperitoneal) in B6D2F1 (BDF1) mice. The conditions noted are these: endpoint: median survival time, higher = longer survival. Put shortly:
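Each value expresses how treatment altered survival: treated-mouse outcome over vehicle-mouse outcome, both groups bearing the transplanted tumour.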

The mark [1] stands for this setting: dose: 100.0 mg/kg/injection, schedule: Q01DX009 (ip), vehicle: saline with Tween-80.
The mark [2] stands for this setting: dose: 200.0 mg/kg/injection, schedule: Q01DX009 (ip), vehicle: saline with Tween-80.
Where [3] appears, read: dose: 400.0 mg/kg/injection, schedule: Q01DX009 (ip), vehicle: saline with Tween-80.
[4] abbreviates: dose: 50.0 mg/kg/injection, schedule: Q01DX009 (ip), vehicle: saline with Tween-80.
Where [5] appears, read: dose: 25.0 mg/kg/injection, schedule: Q01DX009 (ip), vehicle: Klucel (hydroxypropylcellulose) (HPC).
The mark [6] stands for this setting: dose: 50.0 mg/kg/injection, schedule: Q01DX009 (ip), vehicle: Klucel (hydroxypropylcellulose) (HPC).
Where [7] appears, read: dose: 200.0 mg/kg/injection, schedule: Q01DX009 (ip), vehicle: Klucel (hydroxypropylcellulose) (HPC).
[8] abbreviates: dose: 25.0 mg/kg/injection, schedule: Q01DX009 (ip), vehicle: saline.
Where [9] appears, read: dose: 25.0 mg/kg/injection, schedule: Q04DX003 (ip), vehicle: saline.
Where [10] appears, read: dose: 50.0 mg/kg/injection, schedule: Q04DX003 (ip), vehicle: saline.
[11] abbreviates: dose: 100.0 mg/kg/injection, schedule: Q04DX003 (ip), vehicle: saline.
Setting [12] is: dose: 200.0 mg/kg/injection, schedule: Q04DX003 (ip), vehicle: saline.

“And” between values parts separate entries of the source, which are not always exact repeats. Identical values can stand only once. Toxic doses and inconclusive results are not listed.

For `O=C1OC(c2ccccc2)(c2ccccc2)Cc2ccccc21`, the T/C runs as follows: under setting [1], 105 % of control; under setting [2], 105 % of control; under setting [3], 100 % of control.

For the compound `O=[N+]([O-])c1ccc(Oc2ccc(-c3ccccc3)cc2)c(Cl)c1`, the T/C is, setting by setting: (dose: 18.75 mg/kg/injection, schedule: Q01DX009 (ip), vehicle: saline with Tween-80) 92 % of control; (dose: 75.0 mg/kg/injection, schedule: Q01DX009 (ip), vehicle: saline with Tween-80) 93 % of control.

For `CSc1nc(C)cc(=O)[nH]1`, the T/C reads like this: (dose: 6.25 mg/kg/injection, schedule: Q01DX009 (ip), vehicle: saline with Tween-80) 105 % of control; (dose: 12.5 mg/kg/injection, schedule: Q01DX009 (ip), vehicle: saline with Tween-80) 103 % of control; (dose: 25.0 mg/kg/injection, schedule: Q01DX009 (ip), vehicle: saline with Tween-80) 115 % of control; under setting [4], 108 % of control.

In the case of `CCC1(C(C)Br)OC2=C(CC(C#N)(C#N)C(C#N)(C#N)C2)O1` (stereo not drawn), the T/C (dose: 12.0 mg/kg/injection, schedule: Q01DX001 (ip), vehicle: Klucel (hydroxypropylcellulose) (HPC)) was 116 % of control; the T/C (dose: 25.0 mg/kg/injection, schedule: Q01DX001 (ip), vehicle: Klucel (hydroxypropylcellulose) (HPC)) is 104 % of control; the T/C (dose: 50.0 mg/kg/injection, schedule: Q01DX001 (ip), vehicle: Klucel (hydroxypropylcellulose) (HPC)) was 100 % of control.

For `OC(Cc1cnc2ccccc2c1)(c1ccccc1)c1ccccc1`, the T/C is 98 % of control and 103 % of control (dose: 25.0 mg/kg/injection, schedule: Q04DX002 (ip), vehicle: saline with Tween-80); 99 % of control and 117 % of control (dose: 50.0 mg/kg/injection, schedule: Q04DX002 (ip), vehicle: saline with Tween-80); 98 % of control and 103 % of control (dose: 100.0 mg/kg/injection, schedule: Q04DX002 (ip), vehicle: saline with Tween-80); 94 % of control and 99 % of control and 100 % of control (dose: 200.0 mg/kg/injection, schedule: Q04DX002 (ip), vehicle: saline with Tween-80); 98 % of control (dose: 400.0 mg/kg/injection, schedule: Q04DX002 (ip), vehicle: saline with Tween-80).

As to `O=C(CCCN1CCC(O)(c2cccc(C(F)(F)F)c2)CC1)c1ccc(F)cc1`, the T/C is, setting by setting: (dose: 12.5 mg/kg/injection, schedule: Q01DX009 (ip), vehicle: Klucel (hydroxypropylcellulose) (HPC)) 120 % of control; (dose: 12.5 mg/kg/injection, schedule: Q04DX003 (ip), vehicle: Klucel (hydroxypropylcellulose) (HPC)) 112 % of control; (dose: 18.75 mg/kg/injection, schedule: Q04DX003 (ip), vehicle: Klucel (hydroxypropylcellulose) (HPC)) 96 % of control; under setting [5], 114 % of control; (dose: 25.0 mg/kg/injection, schedule: Q04DX003 (ip), vehicle: Klucel (hydroxypropylcellulose) (HPC)) 122 % of control; under setting [6], 117 % of control. The T/C (dose: 50.0 mg/kg/injection, schedule: Q04DX003 (ip), vehicle: Klucel (hydroxypropylcellulose) (HPC)) was 121 % of control and the T/C (dose: 150.0 mg/kg/injection, schedule: Q04DX003 (ip), vehicle: Klucel (hydroxypropylcellulose) (HPC)) was 96 % of control.

Take `O=[N+]([O-])O.[Ag]`: the T/C reads like this: (dose: 10.0 mg/kg/injection, schedule: Q01DX009 (ip), vehicle: saline with Tween-80) 96 % of control; (dose: 40.0 mg/kg/injection, schedule: Q01DX009 (ip), vehicle: saline with Tween-80) 92 % of control; (dose: 40.0 mg/kg/injection, schedule: Q04DX003 (ip), vehicle: saline with Tween-80) 90 % of control.

`CCCC(NC(=O)OCc1ccccc1)C(=O)O` (stereo not drawn): the T/C reads like this: under setting [1], 105 % of control; under setting [2], 105 % of control.

For `NC(c1ccccc1)S(=O)(=O)O` (stereo not drawn), the T/C under setting [4] was 115 % of control, the T/C under setting [1] is 121 % of control, the T/C under setting [2] was 93 % of control and the T/C under setting [3] is 95 % of control.

Turning to `CN(C)CCC(O)c1c[nH]c2ccccc12` (stereo not drawn), the T/C was 99 % of control under setting [1], 97 % of control under setting [2] and 90 % of control under setting [3].

As to `C(/C=C/C=C/N1CCCCC1)=[N+]1CCCCC1`, the T/C reads like this: (dose: 0.13 mg/kg/injection, schedule: Q01DX009 (ip), vehicle: saline) 97 % of control; (dose: 0.25 mg/kg/injection, schedule: Q01DX009 (ip), vehicle: saline) 104 % of control; (dose: 0.5 mg/kg/injection, schedule: Q01DX009 (ip), vehicle: saline) 89 % of control; (dose: 1.0 mg/kg/injection, schedule: Q01DX009 (ip), vehicle: saline) 110 % of control.

For the compound `c1ccc(-c2oc3ccc4ccccc4c3c2-c2ccc(OCCN3CCCC3)cc2)cc1`, the T/C by setting is: (dose: 10.0 mg/kg/injection, schedule: Q01DX009 (ip), vehicle: Klucel (hydroxypropylcellulose) (HPC)) 105 % of control; (dose: 20.0 mg/kg/injection, schedule: Q01DX009 (ip), vehicle: Klucel (hydroxypropylcellulose) (HPC)) 95 % of control; (dose: 40.0 mg/kg/injection, schedule: Q01DX009 (ip), vehicle: Klucel (hydroxypropylcellulose) (HPC)) 105 % of control; (dose: 80.0 mg/kg/injection, schedule: Q01DX009 (ip), vehicle: Klucel (hydroxypropylcellulose) (HPC)) 100 % of control.

In the case of `Cc1cc(N)c(C)c([N+](=O)[O-])c1`, the T/C under setting [4] was 100 % of control, the T/C under setting [1] was 100 % of control and the T/C under setting [2] was 95 % of control.

Take `COC(=O)C12OCC34C(CC5C(C)=C(O)C(=O)CC5(C)C3C(O)C1O)OC(=O)C(O)C24` (stereo not drawn): the T/C reads like this: (dose: 5.0 micrograms/kg/injection, schedule: Q01DX009 (ip), vehicle: saline) 100 % of control; (dose: 10.0 micrograms/kg/injection, schedule: Q01DX009 (ip), vehicle: saline) 109 % of control; (dose: 20.0 micrograms/kg/injection, schedule: Q01DX009 (ip), vehicle: saline) 118 % of control.

For `ClCCN(CCCl)c1ccc(CNCCCNCc2ccc(N(CCCl)CCCl)cc2)cc1`, the T/C is 160 % of control (dose: 2.5 mg/kg/injection, schedule: Q01DX009 (ip), vehicle: saline sonified) and 170 % of control (dose: 3.75 mg/kg/injection, schedule: Q01DX009 (ip), vehicle: saline sonified).

For `CC(=O)OCC(=O)[C@@]1(O)CC[C@H]2[C@@H]3CCC4=CC(=O)[C@H](C)C[C@]4(C)[C@H]3[C@@H](O)C[C@@]21C`, the T/C is, setting by setting: (dose: 100.0 mg/kg/injection, schedule: Q01DX009 (ip), vehicle: Klucel (hydroxypropylcellulose) (HPC)) 118 % of control; under setting [7], 109 % of control; (dose: 400.0 mg/kg/injection, schedule: Q01DX009 (ip), vehicle: Klucel (hydroxypropylcellulose) (HPC)) 118 % of control.

As for `c1ccc2c(c1)cc1c3nnnn3ncn21`, the T/C under setting [4] is 106 % of control, the T/C under setting [1] is 104 % of control and the T/C under setting [2] was 89 % of control.

As for `[NH2-].[NH2-].[NH2-].[NH2-].[NH2-].[NH2-].[Ni]`, the T/C reads like this: (dose: 6.25 mg/kg/injection, schedule: Q01DX001 (ip), vehicle: saline) 99 % of control; (dose: 12.5 mg/kg/injection, schedule: Q01DX001 (ip), vehicle: saline) 103 % of control.

On to `COc1cccc(C2N=NC3=C(CCCC3)N2O)c1O` (stereo not drawn), for which the T/C under setting [5] is 95 % of control, the T/C under setting [6] is 87 % of control and the T/C under setting [7] was 96 % of control.

Consider `COc1cc2ccc3cc[n+](C)cc3c2cc1OC`, for which the T/C was 95 % of control under setting [8]; 104 % of control under setting [9]; 96 % of control and 100 % of control (dose: 50.0 mg/kg/injection, schedule: Q01DX009 (ip), vehicle: saline); 95 % of control under setting [10]; 86 % of control (dose: 100.0 mg/kg/injection, schedule: Q01DX009 (ip), vehicle: saline); 95 % of control and 104 % of control under setting [11]. Under setting [12], the T/C was 90 % of control.

Consider `N/C(=N\O)c1nn(C2OC(CO)C(O)C2O)c2ncnc(N)c12` (stereo not drawn), for which the T/C (dose: 12.5 mg/kg/injection, schedule: Q01DX009 (ip), vehicle: saline) was 102 % of control; the T/C (dose: 12.5 mg/kg/injection, schedule: Q04DX003 (ip), vehicle: saline) is 115 % of control; the T/C under setting [8] is 114 % of control; the T/C under setting [9] is 105 % of control and 116 % of control; the T/C under setting [10] is 110 % of control and 112 % of control; the T/C under setting [11] is 105 % of control and 116 % of control. Moreover, under setting [12], the T/C was 112 % of control.
